Measured values from patent US8546440B2, “Substituted bicyclic imidazole derivatives as gamma secretase modulators” (Janssen Pharmaceuticals, Inc., priority 2008, dated 2013).

How the values were obtained:
Assay type in all cases: cell-based
Aβ42 [1] = test: Screening for γ-secretase-modulating activity, Method 1: Aβ42 sandwich ELISA in supernatant of SKNBE2 cells carrying APP 695 wild type (Tables 12a, 12b); conditions: Table 12b, Method 1, SKNBE2 cells carrying APP 695 wild type, cell supernatant ELISA, averaged IC50 values, percentage of control vs log concentration
Method: (§1) Screening was carried out using SKNBE2 cells carrying the APP 695—wild type, grown in Dulbecco's Modified Eagle's Medium/Nutrient mixture F-12 (DMEM/NUT-mix F-12) (HAM) provided by Gibco (cat no. 31330-38) containing 5% Serum/Fe supplemented with 1% non-essential amino acids. Cells were grown to near confluency.
(§2) The screening was performed using the assay as described in Citron et al (1997) Nature Medicine 3: 67. Briefly, cells were plated in a 96-well plate at about 10^5 cells/ml one day prior to addition of compounds. Compounds were added to the cells in Ultraculture (Lonza, BE12-725F) supplemented with 1% glutamine (Invitrogen, 25030-024) for 18 hours. The media were assayed by two sandwich ELISAs, for Aβ42 and Aβtotal. Toxicity of the compounds was assayed by WST-1 cell proliferation reagent (Roche, 1 644 807) according to the manufacturer's protocol.
To quantify the amount of Aβ42 in the cell supernatant, commercially available Enzyme-Linked-Immunosorbent-Assay (ELISA) kits were used (Innotest® β-Amyloid(1-42), Innogenetics N.V., Ghent, Belgium). The Aβ42 ELISA was performed essentially according to the manufacturer's protocol. Briefly, the standards (dilutions of synthetic Aβ1-42) were prepared in polypropylene Eppendorf with final concentrations of 8000 down to 3.9 pg/ml (1/2 dilution step). Samples, standards and blanks (100 μl) were added to the anti-Aβ42-coated plate supplied with the kit (the capture antibody selectively recognizes the C-terminal end of the antigen). The plate was allowed to incubate 3 h at 25° C. in order to allow formation of the antibody-amyloid complex. Following this incubation and subsequent wash steps a selective anti-Aβ-antibody conjugate (biotinylated 3D6) was added and incubated for a minimum of 1 hour in order to allow formation of the antibody-Amyloid-antibody-complex. After incubation and appropriate wash steps, a Streptavidine-Peroxidase-Conjugate was added, followed 30 minutes later by an addition of 3,3′,5,5′-tetramethylbenzidine (TMB)/peroxide mixture, resulting in the conversion of the substrate into a coloured product. This reaction was stopped by the addition of sulfuric acid (0.9 N) and the colour intensity was measured by means of photometry with an ELISA-reader with a 450 nm filter.
(§3) To obtain the values reported in Table 12a, the sigmoidal dose response curves were analysed by computerised curve-fitting, with percent of inhibition plotted against compound concentration. A 4-parameter equation (model 205) in XLfit was used to determine the IC50. The top and the bottom of the curve were fixed to 100 and 0, respectively, and the hill slope was fixed to 1. The IC50 represents the concentration of a compound that is required for inhibiting a biological effect by 50% (Here, it is the concentration where Aβ peptide level is reduced by 50%).
(§4) To obtain the values reported in Table 12b, the data are calculated as percentage of the maximum amount of amyloid Beta 42 measured in the absence of the test compound. The sigmoidal dose response curves were analyzed using non-linear regression analysis with percentage of the control plotted against the log concentration of the compound. A 4-parameter equation was used to determine the IC50. The values reported in Table 12b are averaged IC50 values.

Aβtotal [2] = test: Screening for γ-secretase-modulating activity, Method 1: Aβtotal sandwich ELISA in supernatant of SKNBE2 cells carrying APP 695 wild type (Tables 12a, 12b); conditions: Table 12b, Method 1, SKNBE2 cells carrying APP 695 wild type, cell supernatant ELISA, averaged IC50 values
Method: as §1, §2
To quantify the amount of Aβtotal in the cell supernatant, samples and standards were added to a 6E10-coated plate. The plate was allowed to incubate overnight at 4° C. in order to allow formation of the antibody-amyloid complex. Following this incubation and subsequent wash steps a selective anti-Aβ-antibody conjugate (biotinylated 4G8) was added and incubated for a minimum of 1 hour in order to allow formation of the antibody-Amyloid-antibody-complex. After incubation and appropriate wash steps, a Streptavidine-Peroxidase-Conjugate was added, followed 30 minutes later by an addition of Quanta Blu fluorogenic peroxidase substrate according to the manufacturer's instructions (Pierce Corp., Rockford, Ill.).
as §3, §4

Aβtotal [3] = test: Screening for γ-secretase-modulating activity, Method 2: Aβtotal Alphalisa in supernatant of SKNBE2 cells carrying APP 695 wild type (Table 12c); conditions: Method 2, Table 12c, incubated overnight
Method: as §1, with “Invitrogen” for “Gibco”, “10371-029)” for “31330-38)”, “acids, 1-glutamine 2 mM, Hepes 15 mM, penicillin 50 U/ml (units/ml) en streptomycin 50 μg/ml.” for “acids.”
(§5) The screening was performed using a modification of the assay as described in Citron et al (1997) Nature Medicine 3: 67. Briefly, cells were plated in a 384-well plate at 10^4 cells/well in Ultraculture (Lonza, BE12-725F) supplemented with 1% glutamine (Invitrogen, 25030-024), 1% non-essential amino acid (NEAA), penicillin 50 U/ml en streptomycin 50 μg/ml in the presence of test compound at different test concentrations. The cell/compound mixture was incubated overnight at 37° C., 5% CO2, The next day the media were assayed by two sandwich immuno-assays, for Aβ42 and Aβtotal.
(§6) Aβtotal and Aβ42 concentrations were quantified in the cell supernatant using the Aphalisa technology (Perkin Elmer). Alphalisa is a sandwich assay using biotinylated antibody attached to streptavidin coated donorbeads and antibody conjugated to acceptor beads. In the presence of antigen, the beads come into close proximity. The excitation of the donor beads provokes the release of singlet oxygen molecules that trigger a cascade of energy transfer in the acceptor beads, resulting in light emission. To quantify the amount of Aβ42 in the cell supernatant, monoclonal antibody specific to the C-terminus of Aβ42 (JRF/cAβ42/26) was coupled to the receptor beads and biotinylated antibody specific to the N-terminus of Aβ (JRF/AβN/25) was used to react with the donor beads. To quantify the amount of Aβtotal in the cell supernatant, monoclonal antibody specific to the N-terminus of Aβ (JRF/AβN/25) was coupled to the receptor beads and biotinylated antibody specific to the mid region of Aβ (biotinylated 4G8) was used to react with the donor beads.
as §4, with “12c,” for “12b,”, “IC50.” for “IC50. The values reported in Table 12b are averaged IC50 values.”

Aβ42 [4] = test: Screening for γ-secretase-modulating activity, Method 2: Aβ42 Alphalisa in supernatant of SKNBE2 cells carrying APP 695 wild type (Table 12c); conditions: Method 2, Table 12c, incubated overnight
Method: as §1, with “Invitrogen” for “Gibco”, “10371-029)” for “31330-38)”, “acids, 1-glutamine 2 mM, Hepes 15 mM, penicillin 50 U/ml (units/ml) en streptomycin 50 μg/ml.” for “acids.”
as §5, §6
as §4, with “12c,” for “12b,”, “IC50.” for “IC50. The values reported in Table 12b are averaged IC50 values.”

SMILES | IC50 (Aβ42 [1]; Homo sapiens) | IC50 (Aβtotal [2]; Homo sapiens) | further results
Cc1ncn(-c2ccc(Nc3cccn4cc(-c5ccc(F)cc5C)nc34)cc2F)n1 [Compound 91] | 72 nM | 18.6 µM | 
COc1cc(Nc2cccn3c(CNC=O)c(-c4cccc(F)c4)nc23)ccc1-n1cnc(C)c1 [Compound 100] |  |  | IC50 (Aβ42 [1]): 11 nM; IC50 (Aβtotal [2]): > 3.02 µM
COc1cc(Nc2cccn3c(CO)c(-c4ccc(F)cc4)nc23)ccc1-n1cnc(C)c1 [Compound 101] | 13 nM | > 1 µM | 
COCc1c(-c2ccccc2)nc2c(Nc3ccc(-n4cnc(C)c4)c(F)c3)cccn12 [Compound 104] |  |  | IC50 (Aβtotal [3]): 7.24 µM; IC50 (Aβ42 [4]): 29 nM
COc1cc(Nc2cccn3cc(C(=O)OC(C)(C)C)nc23)ccc1-n1cnc(C)c1 [Compound 106] |  |  | IC50 (Aβtotal [3]): 4.57 µM; IC50 (Aβ42 [4]): 34 nM
COc1cc(Nc2cccn3cc(-c4cc(CN)ccc4C)nc23)ccc1-n1cnc(C)c1 [Compound 107] |  |  | IC50 (Aβtotal [3]; Homo sapiens): 2.04 µM; IC50 (Aβ42 [4]; Homo sapiens): 48 nM
COc1cc(Nc2cccn3cc(C4CC4)nc23)ccc1-n1cnc(C)c1 [Compound 116] | 295 nM | > 3.02 µM | 
Cc1cc(F)ccc1-c1cn2cccc(Nc3ccc(-n4ncnc4C)c(F)c3)c2n1 [Compound 131] | 245 nM | > 10 µM | 
Cc1ncn(-c2ccc(Nc3cccn4c(C)c(-c5ccccc5Cl)nc34)c(F)c2)n1 [Compound 133] | 468 nM | > 3.02 µM | 
COc1cc(Nc2cc(C(F)(F)F)cn3cc(Cc4ccc(F)cc4)nc23)ccc1-n1cnc(C)n1 [Compound 146] |  |  | IC50 (Aβ42 [1]): 32 nM; IC50 (Aβtotal [2]): > 3.02 µM
COc1cc(Nc2cc(C(F)(F)F)cn3cc(COc4ccc(F)cc4)nc23)ccc1-n1cnc(C)n1 [Compound 147] | 42 nM | > 3.02 µM | 
COc1cc(Nc2cc(C(F)(F)F)cn3cc(CO)nc23)ccc1-n1cnc(C)n1 [Compound 152] | 1780 nM | > 3.02 µM | 
CCc1cn2cc(C(F)(F)F)cc(Nc3ccc(-n4cnc(C)n4)c(OC)c3)c2n1 [Compound 153] | 1900 nM | > 3.02 µM | 
C=Cc1cn2cc(C(F)(F)F)cc(Nc3ccc(-n4cnc(C)n4)c(OC)c3)c2n1 [Compound 154] | > 3020 nM | > 3.02 µM | 
COc1cc(Nc2cc(C(F)(F)F)cn3cc(C(=O)O)nc23)ccc1-n1cnc(C)c1 [Compound 156] |  |  | IC50 (Aβ42 [1]): > 3020 nM; IC50 (Aβtotal [2]): > 3.02 µM
COc1cc(Nc2cc(C(F)(F)F)nn3cc(C)nc23)ccc1-n1cnc(C)c1 [Compound 164] |  |  | IC50 (Aβ42 [1]): 178 nM; IC50 (Aβtotal [2]): > 10 µM
COc1cc(Nc2nc(Br)cn3cc(-c4ccc(F)cc4C)nc23)ccc1-n1cnc(C)n1 [Compound 177] | 234 nM | > 3.02 µM | 
